Test [1] concerns the target T1, human GLP-1 receptor (hGLP-1 R) (Homo sapiens, UniProt P43220).
T1 construct: expressed in transfected cells; host or cells: HEK-293
Nature of the test: cAMP response (HTRF) of HEK-293 cells stably expressing human GLP-1 receptor. In kind it is cell-based. As to conditions: Table 8; cAMP formation. Here is the method: cAMP content of cells was determined using a kit from Cisbio Corp. (cat. no. 62AM4PEJ) based on HTRF (Homogenous Time Resolved Fluorescence). For preparation, cells were split into T175 culture flasks and grown overnight to near confluency in medium (DMEM/10% FBS). Medium was then removed and cells washed with PBS lacking calcium and magnesium, followed by proteinase treatment with accutase (Sigma-Aldrich cat. no. A6964). Detached cells were washed and resuspended in assay buffer (1×HBSS; 20 mM HEPES, 0.1% BSA, 2 mM IBMX) and cellular density determined. They were then diluted to 400000 cells/ml and 25 μl-aliquots dispensed into the wells of 96-well plates. For measurement, 25 μl of test compound in assay buffer was added to the wells, followed by incubation for 30 minutes at room temperature.
Potencies of peptidic compounds at the GLP-1, glucagon and GIP receptors were determined by exposing cells expressing human glucagon receptor (hGlucagon R), human GIP receptor (hGIP-R) or human GLP-1 receptor (hGLP-1 R) to the listed compounds at increasing concentrations and measuring the formed cAMP as described in Methods.
(In general: TR-FRET usually uses a lanthanide donor and a delayed reading to cut background.)

The subject of test [2] is female diet-induced obese (DIO) C57BL/6NHsd mice. The experiment in a line: Acute and chronic effects after subcutaneous treatment in female diet-induced obese (DIO) mice. Format: in vivo, mouse. Here is the method:
Female C57BL/6NHsd mice were ordered group housed from Envigo RMS Inc., shipped group housed and remained group housed with shipped cage mates in shoebox caging with wood chip bedding until day 38 of the predose phase. At the study start mice were between 25-26 weeks old.
Mice were housed under vivarium conditions that included a 12 h light/dark cycle (light phase 04:00 AM-4:00 PM), room temperatures between 23-26° C. and a relative humidity between 30-70%. All animals had free access to water and a high fat diet (TD97366) for 16 weeks prior to pharmacological intervention (dosing phase). Feed was replaced with fresh feed weekly until and for the last time on day 38 of the predose phase. During the subsequent dosing phase, approximately 50% of the remaining feed were removed, replaced with fresh feed, and pellets were mixed evenly once per week.
On predose day 38, obese DIO mice were assigned to treatment groups (n=8) to match mean body masses between all DIO groups. An age-matched group with ad libitum access to a rodent maintenance diet (Teklad Global Diets Rodent 2014, pelleted) was included in the study as a lean control group. In the predosing phase from day 32 through 38, all study animals were treated with vehicle (Phosphate Buffered Saline, PBS, Gibco, without CaCl2 and MgCl2) once daily (s.c. approximately 0.2 mL/mouse).
On day 37 of the predose phase, the test article was diluted with PBS to a concentration of 100 μg/mL and aliquots of this stock solution were stored at approximately ≤−60° C. Stock aliquots were thawed for weekly use and thereafter stored in a refrigerator at approximately 4° C. The injected test article solution was prepared fresh once on each dosing day by diluting stock solution with PBS to achieve the desired concentration.
Mice were treated twice daily with a s.c. injection of PBS-vehicle or the test article for 28 days. The morning dosing was initiated and completed between 06:00 and 07:30 AM and the afternoon dosing between 2:00 and 3:30 PM. On day 28 of the dosing phase only the morning dose was administered. The applied volume was 5 ml/kg and the dose was adjusted to the most recent body mass recording of each individual.
Animals had unlimited access to water and feed during the experiment. On day 1 of the dosing phase approximately 5 μL of blood were collected via tail clips at hour 0, prior to the first s.c. dose of PBS-vehicle or test-article as well as 1, 2, 3, 4, 6, and 24 hours post-dose. Animals received the second s.c. dose of PBS-vehicle or test-article 8 hours after the first dose. The 24 hour blood collection of the blood glucose profile was performed prior to dosing on day 2. Glucose measurements were performed in whole blood and in duplicate or triplicate using Aviva glucometers.
Body mass was measured daily approximately between 06:00-07:30 AM from day 32 through 38 of the predosing phase and throughout the 28 days of the dosing phase. During the dosing phase mice were treated twice daily with either a s.c. injection of PBS-vehicle or test article.
To determine whole body fat mass Quantitative Nuclear Magnetic Resonance (QNMR) measurements were performed on predosing day 37 and on day 26 of the dosing phase. During the dosing phase mice were treated twice daily with either a s.c. injection of PBS-vehicle or test article.
On day 28 blood was collected prior to any other inlife activities for determination of plasma insulin concentrations. Then the morning dose was administered and necropsy was performed 4 hours post-dose. For this purpose animals were anesthetized with isoflurane and blood was collected by orbital bleeding.
On day 28 and 4 hours after the morning dose, blood was collected from mice under isoflurane anesthesia as described above. Then mice were killed and livers were collected and weighed.
Data are depicted as means±SEM. […] A One-Way ANOVA and Tukey Test were used for pairwise multiple comparisons of all groups (n=8/group, deviations from group size are indicated). […]

The mark [3] stands for this setting: 30 μg/kg s.c. twice daily, day 28, in words.
Setting [4] is: 30 μg/kg s.c. twice daily, in words.
The mark [5] stands for this setting: Table 11, twice-daily 30 μg/kg s.c., day 28, mean ± SEM.

Numbered stars: 1 amine (or outer) side, 2 acyl side, 3 side chain; on linkers, the order of the positions; unused ones are H or OH. Square brackets hold non-standard residues; d marks the D form. Side chains are listed from the residue outwards. Peptide text beside a SMILES is read from it. * marks the point of attachment. γGlu = O=C(O)[C@H](CCC(=O)[*:2])N[*:1]; Palmitoyl = CCCCCCCCCCCCCCCC(=O)*; Aib = CC(C)(N)C(=O)O

T1 sequence (P43220 24-463): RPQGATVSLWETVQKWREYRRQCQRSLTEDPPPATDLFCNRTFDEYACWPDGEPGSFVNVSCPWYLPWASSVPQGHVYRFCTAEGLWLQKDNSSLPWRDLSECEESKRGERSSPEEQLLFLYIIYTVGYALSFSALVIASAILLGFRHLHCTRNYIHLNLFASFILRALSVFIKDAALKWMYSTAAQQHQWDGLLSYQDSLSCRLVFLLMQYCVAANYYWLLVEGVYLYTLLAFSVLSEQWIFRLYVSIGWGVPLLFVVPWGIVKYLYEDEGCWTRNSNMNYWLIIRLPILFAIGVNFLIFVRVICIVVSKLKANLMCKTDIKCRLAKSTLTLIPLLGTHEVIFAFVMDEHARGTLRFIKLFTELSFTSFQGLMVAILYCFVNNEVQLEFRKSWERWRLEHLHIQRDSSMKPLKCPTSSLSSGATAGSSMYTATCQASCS

For the compound `CCCCCCCCCCCCCCCC(=O)N[C@@H](CCC(=O)N[C@@H](CCC(=O)NCCCC[C@H](NC(=O)[C@H](CC(C)C)NC(=O)[C@H](CCCCN)NC(=O)[C@H](CO)NC(=O)[C@H](CC(C)C)NC(=O)[C@H](CC(=O)O)NC(=O)[C@H](CO)NC(=O)[C@@H](NC(=O)[C@H](Cc1ccccc1)NC(=O)[C@@H](NC(=O)CNC(=O)[C@H](CCC(N)=O)NC(=O)C(C)(C)NC(=O)[C@@H](N)Cc1c[nH]cn1)[C@@H](C)O)[C@@H](C)O)C(=O)N[C@@H](CCC(=O)O)C(=O)N[C@@H](CCC(=O)O)C(=O)N[C@@H](CCC(N)=O)C(=O)N[C@@H](CCCNC(=N)N)C(=O)N[C@@H](CCC(N)=O)C(=O)NC(C)(C)C(=O)N[C@@H](CCC(=O)O)C(=O)N[C@@H](Cc1ccccc1)C(=O)N[C@H](C(=O)N[C@@H](CCC(=O)O)C(=O)N[C@@H](Cc1c[nH]c2ccccc12)C(=O)N[C@@H](CC(C)C)C(=O)N[C@@H](CCCCN)C(=O)N[C@@H](C)C(=O)N[C@H](C)C(=O)NCC(=O)N1CCC[C@H]1C(=O)N1CCC[C@H]1C(=O)N[C@@H](CO)C(=O)NC(C)(C)C(=O)N[C@@H](CCCCN)C(=O)N1CCC[C@H]1C(=O)N1CCC[C@H]1C(=O)N1CCC[C@H]1C(=O)N[C@@H](CCCCN)C(N)=O)[C@@H](C)CC)C(=O)O)C(=O)O` [SEQ ID NO: 10, H-Aib-Q-G-T-F-T-S-D-L-S-K-L-K[gGlu-gGlu-Palm]-E-E-Q-R-Q-Aib-E-F-I-E-W-L-K-A-dAla-G-P-P-S-Aib-K-P-P-P-K-NH2] (H-H[Aib]QGTFTSDLSKLK([γGlu-γGlu-Palmitoyl])EEQRQ[Aib]EFIEWLKA[dA]GPPS[Aib]KPPPK-NH2), in test [1], a half-maximal effect (EC50) was put at 2.4 pM. The “Body mass compared to the DIO-Vehicle group” value in test [2] (30 μg/kg s.c. twice daily, 28 days, in words) is “statistically significant decrease in body mass”. Besides, in test [2] (setting [3]), the “Plasma insulin concentrations compared to DIO vehicle” value is on record as “statistically significant reduction in plasma insulin concentrations” and the “Plasma total cholesterol concentrations compared to DIO vehicle” value is on record as “statistically significant reduction in plasma total cholesterol concentrations”. Also, in test [2] (setting [4]), the “Liver mass on day 28 compared to DIO animals treated with vehicle” value is given as “statistically significantly lower liver mass” and the “Plasma alanine aminotransferase concentration on day 28 compared to DIO vehicle” value was “statistically significantly lower plasma alanine aminotransferase concentration”. The “24 hour blood glucose profile following first treatment” value in test [2] (30 μg/kg s.c., day 1, fed DIO mice, vs DIO control, in words) is “decrease in blood glucose concentrations below concentrations observed in DIO control mice”. Moreover, the “Body mass change” value in test [2] (Table 11, twice-daily 30 μg/kg s.c., 28 days, mean ± SEM) was -7.14 ± 0.64 g. Also, in test [2] (Table 11, twice-daily 30 μg/kg s.c., QNMR predose vs day 26, mean ± SEM), the “Whole body fat mass change” value was -6.48 ± 0.90 g. For the same compound, in test [2] (setting [5]), the “Terminal liver mass (g)” value is reported as “+1.07 ± 0.04 g”, the “Terminal plasma alanine aminotransferase (U/L)” value is reported as “+56.75 ± 4.65 U/L”, the “Terminal plasma insulin (U/L)” value was “+35.81 ± 2.79 U/L” and the “Terminal plasma total cholesterol (mmol/L)” value is recorded as “+4.28 ± 0.15 mmol/L”.

These data come from patent publication US10519211B2, “Compounds as peptidic GLP1/glucagon/GIP receptor agonists” (SANOFI, priority 2016, dated 2019).
